The experiment relates to CD2F1 mice, L1210 leukemia ip, survival T/C. Description: NCI In Vivo Anticancer Drug Screen. Data for tumor model L1210 Leukemia (intraperitoneal) in CD2F1 (CDF1) mice. The conditions noted are these: endpoint: mean survival time, higher = longer survival. The gist of the method: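 Ratio T/C, where T is the treated-group value and C the vehicle-dosed control value, from mice implanted with a transplantable tumor.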

The mark [1] stands for this setting: dose: 100.0 mg/kg/injection, schedule: Q01DX001 (ip), vehicle: saline with Tween-80.
Setting [2] is: dose: 200.0 mg/kg/injection, schedule: Q01DX001 (ip), vehicle: saline with Tween-80.
Setting [3] is: dose: 400.0 mg/kg/injection, schedule: Q01DX001 (ip), vehicle: saline with Tween-80.
[4] abbreviates: dose: 100.0 mg/kg/injection, schedule: Q01DX001 (ip), vehicle: saline.
[5] abbreviates: dose: 200.0 mg/kg/injection, schedule: Q01DX001 (ip), vehicle: saline.
Where [6] appears, read: dose: 400.0 mg/kg/injection, schedule: Q01DX001 (ip), vehicle: saline.
Setting [7] is: dose: 12.5 mg/kg/injection, schedule: Q04DX003 (ip), vehicle: saline with Tween-80.
The mark [8] stands for this setting: dose: 25.0 mg/kg/injection, schedule: Q04DX003 (ip), vehicle: saline with Tween-80.
[9] abbreviates: dose: 50.0 mg/kg/injection, schedule: Q04DX003 (ip), vehicle: saline with Tween-80.
The mark [10] stands for this setting: dose: 100.0 mg/kg/injection, schedule: Q04DX003 (ip), vehicle: saline with Tween-80.
Where [11] appears, read: dose: 200.0 mg/kg/injection, schedule: Q04DX003 (ip), vehicle: saline with Tween-80.
[12] abbreviates: dose: 400.0 mg/kg/injection, schedule: Q04DX003 (ip), vehicle: saline with Tween-80.
Setting [13] is: dose: 25.0 mg/kg/injection, schedule: Q04DX003 (ip), vehicle: saline.
Setting [14] is: dose: 50.0 mg/kg/injection, schedule: Q04DX003 (ip), vehicle: saline.
[15] abbreviates: dose: 100.0 mg/kg/injection, schedule: Q04DX003 (ip), vehicle: saline.
The mark [16] stands for this setting: dose: 100.0 mg/kg/injection, schedule: Q01DX009 (ip), vehicle: saline with Tween-80.
Where [17] appears, read: dose: 200.0 mg/kg/injection, schedule: Q01DX009 (ip), vehicle: saline with Tween-80.
Setting [18] is: dose: 400.0 mg/kg/injection, schedule: Q01DX009 (ip), vehicle: saline with Tween-80.

Several values for one entry are separate records, joined by “and”; a condition that tells them apart may be missing. Identical values can stand only once. Toxic doses and inconclusive results are not listed.

In the case of `c1ccc(N/N=C(/c2ccccc2)c2ccccn2)cc1`, the T/C under setting [1] is 103 % of control, the T/C under setting [2] is 111 % of control and the T/C under setting [3] was 105 % of control.
Regarding `CCOC(=O)C(C(=O)OC)C(=O)OCC`, the T/C is, setting by setting: under setting [4], 95 % of control; under setting [5], 103 % of control; under setting [6], 103 % of control.
Consider `CCN(CC)CCCC(C)Nc1ncnc2oc(C)c(C)c12` (stereo not drawn), for which the T/C by setting is: (dose: 6.25 mg/kg/injection, schedule: Q01DX009 (ip), vehicle: saline with Tween-80) 93 % of control; (dose: 6.25 mg/kg/injection, schedule: Q04DX003 (ip), vehicle: saline with Tween-80) 103 % of control; (dose: 12.5 mg/kg/injection, schedule: Q01DX009 (ip), vehicle: saline with Tween-80) 95 % of control; under setting [7], 105 % of control; (dose: 25.0 mg/kg/injection, schedule: Q01DX009 (ip), vehicle: saline with Tween-80) 95 % of control; under setting [8], 102 % of control.
Take `Nc1cc(=O)c2cn[nH]c2[nH]1`: the T/C is 98 % of control (dose: 12.5 mg/kg/injection, schedule: Q01DX005 (ip), vehicle: other); 102 % of control (dose: 25.0 mg/kg/injection, schedule: Q01DX005 (ip), vehicle: other); 102 % of control (dose: 50.0 mg/kg/injection, schedule: Q01DX005 (ip), vehicle: other); 95 % of control (dose: 100.0 mg/kg/injection, schedule: Q01DX005 (ip), vehicle: other).
Consider `O=C(c1ccc([N+](=O)[O-])cc1)C(Br)C(Br)c1ccnc2ccccc12` (stereo not drawn), for which the T/C is, setting by setting: under setting [7], 92 % of control; under setting [8], 98 % of control; under setting [9], 95 % of control.
As to `O=C(O)c1cscc1-c1ccccc1`, the T/C under setting [10] was 104 % of control, the T/C under setting [11] was 104 % of control and the T/C under setting [12] was 102 % of control.
With `NC(c1ccccc1)C(N)c1ccccc1` (stereo not drawn), the T/C runs as follows: (dose: 25.0 mg/kg/injection, schedule: Q04DX003 (ip), vehicle: other) 102 % of control; (dose: 50.0 mg/kg/injection, schedule: Q04DX003 (ip), vehicle: other) 94 % of control; (dose: 100.0 mg/kg/injection, schedule: Q04DX003 (ip), vehicle: other) 88 % of control.
Take `CC(C)(Nc1ccccc1)c1cccs1`: the T/C runs as follows: under setting [10], 101 % of control; under setting [11], 97 % of control; under setting [12], 112 % of control.
As to `CC(C)NC(=S)S`, the T/C was 100 % of control (dose: 25.0 mg/kg/injection, schedule: Q01DX009 (ip), vehicle: saline); 100 % of control under setting [13]; 94 % of control (dose: 50.0 mg/kg/injection, schedule: Q01DX009 (ip), vehicle: saline); 105 % of control under setting [14]; 109 % of control (dose: 100.0 mg/kg/injection, schedule: Q01DX009 (ip), vehicle: saline); 103 % of control under setting [15].
As for `Nc1nc2ccc(CNc3ccc(C(=O)NC(CC(=O)O)C(=O)O)cc3)cc2c(=O)[nH]1` (stereo not drawn), the T/C by setting is: (dose: 66.0 mg/kg/injection, schedule: Q04DX003 (ip), vehicle: saline with Tween-80) 105 % of control; under setting [10], 109 % of control; (dose: 150.0 mg/kg/injection, schedule: Q04DX003 (ip), vehicle: saline with Tween-80) 105 % of control.
In the case of `COC(=O)c1nc2ccccc2nc1C(=O)OC`, the T/C under setting [16] is 103 % of control; the T/C under setting [10] was 100 % of control; the T/C under setting [17] is 103 % of control; the T/C under setting [11] was 94 % of control; the T/C under setting [18] was 102 % of control; the T/C under setting [12] is 96 % of control.
Take `CC(O)CNCCNc1ccc(NCCNCC(C)O)c2c1C(=O)c1c(O)ccc(O)c1C2=O` (stereo not drawn): the T/C is 123 % of control (dose: 0.25 mg/kg/injection, schedule: Q01DX005 (ip), vehicle: water); 123 % of control (dose: 0.5 mg/kg/injection, schedule: Q01DX005 (ip), vehicle: water); 165 % of control (dose: 8.0 mg/kg/injection, schedule: Q01DX005 (ip), vehicle: water).
For `COC(=O)CCN(c1ccccc1)c1ccc(C)cc1`, the T/C reads like this: under setting [10], 97 % of control; under setting [11], 97 % of control; under setting [12], 97 % of control.
Turning to `CCOC(=O)C(C(=O)OCC)C1CCS(=O)(=O)C1` (stereo not drawn), the T/C runs as follows: under setting [10], 95 % of control; under setting [11], 97 % of control; under setting [12], 95 % of control.
Regarding `Cc1ccc(/C=N/NC(=O)CNC(=O)Nc2cccc(C(F)(F)F)c2)cc1`, the T/C by setting is: (dose: 50.0 mg/kg/injection, schedule: Q01DX009 (ip), vehicle: saline with Tween-80) 92 % of control; under setting [16], 88 % of control; under setting [17], 92 % of control.
Regarding `COc1ccc2nc3c(Cl)cccc3c(Oc3ccccc3)c2c1`, the T/C under setting [1] was 94 % of control, the T/C under setting [2] was 92 % of control and the T/C under setting [3] was 101 % of control.
As for `CC(C)CC(C)OP(=S)(S)OC(C)CC(C)C.[Cd]` (stereo not drawn), the T/C (dose: 6.25 mg/kg/injection, schedule: Q04DX002 (ip), vehicle: saline) was 93 % of control; the T/C (dose: 12.5 mg/kg/injection, schedule: Q04DX002 (ip), vehicle: saline) is 104 % of control; the T/C (dose: 25.0 mg/kg/injection, schedule: Q04DX002 (ip), vehicle: saline with Tween-80) was 100 % of control; the T/C (dose: 25.0 mg/kg/injection, schedule: Q04DX002 (ip), vehicle: saline) was 93 % of control; the T/C (dose: 50.0 mg/kg/injection, schedule: Q04DX002 (ip), vehicle: saline with Tween-80) was 88 % of control.
With `Nc1ccc(S(=O)(=O)F)c(Cl)c1`, the T/C under setting [16] was 97 % of control; the T/C under setting [15] was 95 % of control; the T/C under setting [17] was 100 % of control; the T/C (dose: 200.0 mg/kg/injection, schedule: Q04DX003 (ip), vehicle: saline) is 101 % of control; the T/C (dose: 400.0 mg/kg/injection, schedule: Q04DX003 (ip), vehicle: saline) was 95 % of control.
Consider `COc1cc(NCc2ccccc2O)c2ncccc2c1`, for which the T/C is, setting by setting: under setting [9], 91 % of control; under setting [10], 91 % of control; under setting [11], 91 % of control.
As to `ClC(Cl)c1ccccc1C(Cl)(Cl)Cl`, the T/C runs as follows: under setting [4], 104 % of control; under setting [16], 99 % of control; under setting [10], 94 % of control; under setting [5], 98 % of control; under setting [17], 101 % of control; under setting [11], 94 % of control. For the same compound, the T/C under setting [6] is 98 % of control, the T/C under setting [18] was 94 % of control and the T/C under setting [12] was 88 % of control.
`C#CCOc1ccccc1O`: the T/C is, setting by setting: (dose: 100.0 mg/kg/injection, schedule: Q04DX003 (ip), vehicle: acetone) 101 % of control; (dose: 200.0 mg/kg/injection, schedule: Q04DX003 (ip), vehicle: acetone) 103 % of control; (dose: 400.0 mg/kg/injection, schedule: Q04DX003 (ip), vehicle: acetone) 95 % of control.
Turning to `CC(=O)OC1COC(n2cnc3c(=O)[nH]cnc32)C(OC(C)=O)C1OC(C)=O` (stereo not drawn), the T/C (dose: 12.5 mg/kg/injection, schedule: Q01DX001 (ip), vehicle: saline) was 100 % of control and 109 % of control; the T/C (dose: 25.0 mg/kg/injection, schedule: Q01DX001 (ip), vehicle: saline) was 100 % of control and 106 % of control; the T/C (dose: 50.0 mg/kg/injection, schedule: Q01DX001 (ip), vehicle: saline) is 118 % of control and 103 % of control; the T/C under setting [4] was 97 % of control and 106 % of control.
For the compound `Brc1ccc(C[N+]23CCN(CC2)CC3)cc1`, the T/C was 98 % of control and 111 % of control (dose: 12.5 mg/kg/injection, schedule: Q04DX003 (ip), vehicle: saline); 93 % of control and 100 % of control under setting [13]; 95 % of control and 103 % of control under setting [14].
For `CCOc1ccccc1C1=CCCCCC1`, the T/C by setting is: under setting [10], 98 % of control; under setting [11], 107 % of control; under setting [12], 103 % of control.
